Measured values reported in PMC4172534 (Neuroscience, 2014).

Key:
GluK2/K5 receptors = settings: literature range; ref Jones et al., 1997; Alt et al., 2004; Jane et al., 2009; cited from earlier work
GluK2 receptors = settings: literature range; ref Jones et al., 1997; Alt et al., 2004; Jane et al., 2009; cited from earlier work
GluK3/K5 heteromer = settings: read-out: glutamate EC50; ref Perrais et al, 2009a; cited from earlier work
[1] = system: Homomeric GluK1 or GluK2 receptors; test: Whole-cell patch-clamp current response, homomeric GluK1 or GluK2 receptors; type: cell-based, rat; settings: read-out: EC50 range; summary in discussion of own homomer values
GluK3 homomers = settings: read-out: glutamate EC50; ref Perrais et al, 2009a; cited from earlier work

Row | SMILES | EC50 (GluK2/K5 receptors) [µM] | EC50 (GluK2 receptors) [µM] | EC50 (GluK3/K5 heteromer) [µM] | EC50 [1] [µM] | EC50 (GluK3 homomers) [µM]
1 | C=C(C)[C@H]1CN[C@H](C(=O)O)[C@H]1CC(=O)O [kainate] | 1 to 5 | 1 to 5 |  |  | 
2 | N[C@@H](CCC(=O)O)C(=O)O [glutamate] |  |  | 6000 | 100 to 200 | 10000
